# Columns and labels:
# Cannabinoid receptor 1 [1] = biological target: T1, Cannabinoid receptor 1 (Rattus norvegicus, UniProt P20272); test: Binding affinity to displace [3H]CP-55940 from CB1 receptor of rat brain
# Cannabinoid receptor 2 [2] = biological target: T2, Cannabinoid receptor 2 (Homo sapiens, UniProt P34972); test: Binding affinity to displace [3H]CP-55940 from cloned human CB2 receptor
# [3] = Ratio of the binding affinity towards CB1 receptor to that of CB2 receptor
# Cannabinoid receptor 2 [4] = biological target: T2, Cannabinoid receptor 2; test: Effective concentration for stimulation of [35S]GTP-gamma-S, binding at CB2 receptor in presence of 3 uM CP-55940; assay type: functional
# Cannabinoid receptor 1 [5] = biological target: T1, Cannabinoid receptor 1; test: Effective concentration for stimulation of [35S]GTP-gamma-S binding at CB1 receptor in presence of 10 uM WIN-55212-2; assay type: functional
# Cannabinoid receptor 2 [6] = biological target: T2, Cannabinoid receptor 2; test: Percent maximal effectiveness for stimulation of [35S]GTP-gamma-S, binding at CB2 receptor in presence of 3 uM CP-55940; assay type: functional
# T2 sequence (P34972 whole entry): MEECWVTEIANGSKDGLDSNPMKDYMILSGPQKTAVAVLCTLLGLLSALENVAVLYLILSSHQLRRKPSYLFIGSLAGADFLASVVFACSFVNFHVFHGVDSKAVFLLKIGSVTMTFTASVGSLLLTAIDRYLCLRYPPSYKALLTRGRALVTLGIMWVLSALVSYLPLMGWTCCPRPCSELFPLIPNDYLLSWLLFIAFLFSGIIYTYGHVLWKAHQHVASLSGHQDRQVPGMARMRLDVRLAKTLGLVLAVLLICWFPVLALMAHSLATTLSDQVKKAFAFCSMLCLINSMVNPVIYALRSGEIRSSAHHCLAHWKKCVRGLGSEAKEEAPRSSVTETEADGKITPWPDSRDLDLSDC
# T1 sequence (P20272 whole entry): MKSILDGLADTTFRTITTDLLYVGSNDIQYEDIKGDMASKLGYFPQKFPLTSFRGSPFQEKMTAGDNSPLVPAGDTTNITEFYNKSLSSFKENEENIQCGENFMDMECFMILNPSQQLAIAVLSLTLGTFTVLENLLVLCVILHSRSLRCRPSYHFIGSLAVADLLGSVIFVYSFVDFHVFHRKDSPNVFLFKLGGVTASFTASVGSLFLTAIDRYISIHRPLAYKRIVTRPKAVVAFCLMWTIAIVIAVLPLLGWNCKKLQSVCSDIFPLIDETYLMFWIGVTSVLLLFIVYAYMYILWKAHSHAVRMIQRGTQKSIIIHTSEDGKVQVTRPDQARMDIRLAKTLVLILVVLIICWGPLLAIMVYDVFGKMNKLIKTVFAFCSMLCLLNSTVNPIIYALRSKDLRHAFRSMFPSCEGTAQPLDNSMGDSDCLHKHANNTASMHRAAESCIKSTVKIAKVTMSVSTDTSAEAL
Compound,Ki (Cannabinoid receptor 1 [1]),Ki (Cannabinoid receptor 2 [2]),Ratio [3],EC50 (Cannabinoid receptor 2 [4]),EC50 (Cannabinoid receptor 1 [5]),Emax (Cannabinoid receptor 2 [6])
CCCCCn1c(C)c(C(=O)Cc2ccccc2OC)c2ccccc21,25 nM,82 nM,0.3,–,–,–
CCCCCn1cc(C(=O)Cc2ccc(Br)cc2)c2ccccc21,–,657 nM,1.6,–,–,–
CCCCCn1cc(C(=O)Cc2ccccc2Cl)c2ccccc21,8 nM,7 nM,1.1,–,–,–
CCCCCn1c(C)c(C(=O)Cc2cccc(Cl)c2)c2ccccc21,117 nM,138 nM,0.85,–,–,–
CCCCCn1cc(C(=O)Cc2ccc(Cl)cc2)c2ccccc21,389 nM,498 nM,0.78,–,–,–
CCCCCn1cc(C(=O)Cc2ccccc2)c2ccccc21,90 nM,159 nM,0.57,–,–,–
CCCCCn1c(C)c(C(=O)Cc2ccc(F)cc2)c2ccccc21,2860 nM,781 nM,3.7,–,–,–
CCCCCn1cc(C(=O)Cc2ccccc2OC)c2ccccc21,11 nM,33 nM,0.33,–,–,–
CCCCCn1c(C)c(C(=O)Cc2ccccc2Cl)c2ccccc21,13 nM,25 nM,0.52,–,–,–
CCCCCn1c(C)c(C(=O)Cc2ccccc2C)c2ccccc21,23 nM,19 nM,1.2,–,–,–
CCCCCn1c(C)c(C(=O)Cc2ccccc2)c2ccccc21,124 nM,180 nM,0.69,–,–,–
CCCCCn1c(C)c(C(=O)Cc2ccccc2Br)c2ccccc21,15 nM,29 nM,0.52,–,–,–
CCCCCn1c(C)c(C(=O)Cc2cccc(OC)c2)c2ccccc21,62 nM,84 nM,0.74,–,–,–
CCCCCn1cc(C(=O)Cc2cccc(OC)c2)c2ccccc21,17 nM,89 nM,0.19,24.4 nM,29.3 nM,33.5%
CCCCCn1c(C)c(C(=O)Cc2cccc(F)c2)c2ccccc21,430 nM,182 nM,2.4,–,–,–
CCCCCn1c(C)c(C(=O)Cc2ccc(C)cc2)c2ccccc21,746 nM,1350 nM,0.55,–,–,–
CCCCCn1cc(C(=O)Cc2ccccc2C)c2ccccc21,29 nM,146 nM,0.2,8.3 nM,29 nM,47%
CCCCCn1c(C)c(C(=O)Cc2ccc(Br)cc2)c2ccccc21,–,2680 nM,1.2,–,–,–
CCCCCn1c(C)c(C(=O)Cc2ccccc2F)c2ccccc21,39 nM,76 nM,0.51,–,–,–
CCCCCn1cc(C(=O)Cc2ccc(OC)cc2)c2ccccc21,1060 nM,444 nM,2.4,–,–,–
CCCCCn1c(C)c(C(=O)Cc2ccc(OC)cc2)c2ccccc21,1680 nM,645 nM,2.6,–,–,–
CCCCCn1cc(C(=O)Cc2cccc(Cl)c2)c2ccccc21,38 nM,106 nM,0.36,–,–,–
CCCCCn1cc(C(=O)Cc2ccc(C)cc2)c2ccccc21,179 nM,570 nM,0.31,–,–,–
CCCCCn1cc(C(=O)Cc2ccccc2Br)c2ccccc21,8.4 nM,20 nM,0.42,–,–,–
CCCCCn1c(C)c(C(=O)Cc2ccc(Cl)cc2)c2ccccc21,1600 nM,3720 nM,0.43,–,–,–
CCCCCn1cc(C(=O)Cc2ccccc2F)c2ccccc21,23 nM,39 nM,0.6,–,–,–
CCCCCn1cc(C(=O)Cc2cccc(F)c2)c2ccccc21,72 nM,91 nM,0.79,–,–,–
CCCCCn1cc(C(=O)Cc2ccc(F)cc2)c2ccccc21,422 nM,365 nM,1.2,–,–,–
